For 29 compounds, EC50 results are on record in patent US10766894B2, “Aza-indazole compounds for use in tendon and/or ligament injuries” (NOVARTIS AG, priority 2016, dated 2020).

SMILES strings stand for the structures. Like-named read-outs stand apart in the source and are kept apart here.

The test system of experiment [1] is mouse immortalized TT-D6 Scx-luciferase (ScxL) cell line; transcriptional activation of Scleraxis (Scx) gene. The experiment can be described thus: SCX-LUC in vitro assay (scleraxis promoter luciferase reporter). Particulars: Mus musculus, 96 h, TT-D6 Scx-luciferase cells, 1 ng/ml TGFβ1, four days. The format is cell-based. For orientation: In a reporter assay the amount or activity of a reporter protein is the signal.

Experiment [2] deals with Scleraxis (Scx) gene expression in rat tail tendon fascicles. The experiment can be described thus: Ex vivo assay, tendon fascicles, Scleraxis mRNA (qPCR). The class given is cell-based, Sprague Dawley rat. The settings on record: 96 h; Examples table; rat tail tendon fascicles, four days, delta-delta Ct; read-out: Ex vivo Scx (EC50 μM). For orientation: In qPCR the cycle at which signal appears reflects the starting amount.

Experiment [3] concerns Tenomodulin (Tnmd) gene expression in rat tail tendon fascicles. Kind of experiment: Ex vivo assay, tendon fascicles, Tenomodulin mRNA (qPCR). The format is cell-based, Sprague Dawley rat. The settings on record: 96 h; Examples table; rat tail tendon fascicles, four days, delta-delta Ct; read-out: Ex vivo Tnmd (EC50 μM).
Experiment [4] concerns collagen type 1 (Col1a2) gene expression in rat tail tendon fascicles. Kind of experiment: Ex vivo assay, tendon fascicles, collagen type 1 mRNA (qPCR). The class given is cell-based, Sprague Dawley rat. The settings on record: 96 h; Examples table; rat tail tendon fascicles, four days, delta-delta Ct; read-out: Ex vivo Col1a2 (EC50 μM).
Setting [5] is: Examples table, read-out: Scx-Luc (EC50 μM).
Where [6] appears, read: Table 1, read-out: Scx-Luc (EC50 uM).

As usually defined, the EC50 is the concentration needed to bring the measured effect to its halfway point. In the case of `Nc1n[nH]c2ccc(-c3ccc(S(=O)(=O)N[C@H]4C[C@](O)(C(F)(F)F)C4)cc3Cl)nc12` [Example 1], the concentration giving a half-maximal response (EC50) is 0.183 µM in experiment [1] (setting [5]), 2.11 µM in experiment [2], 0.804 µM in experiment [3] and 1.59 µM in experiment [4].

Consider `Nc1n[nH]c2ccc(-c3ccc(NS(=O)(=O)c4ccc(Cl)cc4)cc3Cl)nc12` [Example 3, N-(4-(3-amino-1H-pyrazolo[4,3-b]pyridin-5-yl)-3-chlorophenyl)-4-chlorobenzenesulfonamide], for which the EC50 in experiment [1] (setting [5]) is 0.801 µM; in experiment [2] it was more than 10 µM; in experiment [3], 1.15 µM; in experiment [4], 3.08 µM.

For `Nc1n[nH]c2ccc(-c3ccc(S(=O)(=O)N[C@@H]4CCC[C@@H]4O)cc3Cl)nc12` [Example 7, 4-(3-amino-1H-pyrazolo[4,3-b]pyridin-5-yl)-3-chloro-N-((1R,2S)-2-hydroxycyclopentyl)benzenesulfonamide], the EC50 in experiment [1] (setting [5]) came out at 0.305 µM; in experiment [2], 1.6 µM; in experiment [3], 1.68 µM; in experiment [4], 2.06 µM.

On to `Cc1cc(S(=O)(=O)NC2CC(F)(F)C2)ccc1-c1ccc2[nH]nc(N)c2n1` [Example 8, 4-(3-amino-1H-pyrazolo[4,3-b]pyridin-5-yl)-N-(3,3-difluorocyclobutyl)-3-methylbenzenesulfonamide], for which the EC50 is 0.346 µM in experiment [1] (setting [5]), 0.11 µM in experiment [2], 0.261 µM in experiment [3] and 1.29 µM in experiment [4].

For `Cc1cc(S(=O)(=O)N(C)[C@H]2C[C@](O)(C(F)(F)F)C2)ccc1-c1ccc2[nH]nc(N)c2n1` [Example 9, 4-(3-amino-1H-pyrazolo[4,3-b]pyridin-5-yl)-N-((1s,3s)-3-hydroxy-3-(trifluoromethyl)cyclobutyl)-N,3-dimethylbenzenesulfonamide], the concentration giving a half-maximal response (EC50) in experiment [1] (setting [5]) stood at 0.46 µM; in experiment [2], 2.27 µM; in experiment [3], 2.14 µM; in experiment [4], 0.577 µM.

As to `Nc1n[nH]c2ccc(-c3ccc(NS(=O)(=O)c4ccc5c(c4)OCO5)cc3Cl)nc12` [Example 11, N-(4-(3-amino-1H-pyrazolo[4,3-b]pyridin-5-yl)-3-chlorophenyl)benzo[d][1,3]dioxole-5-sulfonamide], the EC50 in experiment [1] (setting [5]) is 0.801 µM; in experiment [2], 3.05 µM; in experiment [3], 0.841 µM; in experiment [4], 2.46 µM.

`Nc1n[nH]c2ccc(-c3ccc(S(=O)(=O)NC4CCCCC4O)cc3Cl)nc12` (centres unmarked) [Example 12, 4-(3-amino-1H-pyrazolo[4,3-b]pyridin-5-yl)-3-chloro-N-(2-hydroxycyclohexyl)benzenesulfonamide]: the EC50 in experiment [1] (setting [5]) was 0.765 µM; in experiment [2], 5.79 µM; in experiment [3] it was 5.39 µM; in experiment [4], 4.62 µM.

On to `Cc1cc(S(=O)(=O)Nc2ccccc2)ccc1-c1ccc2[nH]nc(N)c2n1` [Example 16, 4-(3-amino-1H-pyrazolo[4,3-b]pyridin-5-yl)-3-methyl-N-phenylbenzenesulfonamide], for which the EC50 in experiment [1] (setting [5]) came out at 0.61 µM; in experiment [2] it was 3.86 µM; in experiment [3], 2.81 µM; in experiment [4] it was 4.65 µM.

As for `Nc1n[nH]c2ccc(-c3ccc(S(=O)(=O)N4CC(F)(F)C[C@H]4CO)cc3Cl)nc12` [Example 18, (S)-(1-((4-(3-amino-1H-pyrazolo[4,3-b]pyridin-5-yl)-3-chlorophenyl)sulfonyl)-4,4-difluoropyrrolidin-2-yl)methanol], the EC50 in experiment [1] (setting [5]) is 0.764 µM; in experiment [2] it was 1.77 µM; in experiment [3], 0.75 µM; in experiment [4], 1.83 µM.

`Cc1cc(S(=O)(=O)N2CC3CCCC3C2)ccc1-c1ccc2[nH]nc(N)c2n1` (centres unmarked) [Example 21, 5-(4-((hexahydrocyclopenta[c]pyrrol-2(1H)-yl)sulfonyl)-2-methylphenyl)-1H-pyrazolo[4,3-b]pyridin-3-amine]: the EC50 in experiment [1] (setting [5]) is 0.598 µM; in experiment [2], 4.93 µM; in experiment [3], 3.51 µM; in experiment [4] it was 3.71 µM.

Consider `Nc1n[nH]c2ccc(-c3ccc(S(=O)(=O)NC4CCS(=O)(=O)C4)cc3Cl)nc12` (centres unmarked) [Example 31, 4-(3-amino-1H-pyrazolo[4,3-b]pyridin-5-yl)-3-chloro-N-(1,1-dioxidotetrahydrothiophen-3-yl)benzenesulfonamide], for which the EC50 in experiment [1] (setting [5]) was found to be 0.411 µM; in experiment [2], 2.31 µM; in experiment [3] it was 2.76 µM; in experiment [4], 2.63 µM.

On to `Nc1n[nH]c2ccc(-c3ccc(S(=O)(=O)Nc4ccccc4)cc3Cl)nc12` [Example 38, 4-(3-amino-1H-pyrazolo[4,3-b]pyridin-5-yl)-3-chloro-N-phenylbenzenesulfonamide], for which the EC50 in experiment [1] (setting [5]) stood at 0.61 µM; in experiment [2], 0.188 µM; in experiment [3], 1.89 µM; in experiment [4], 0.396 µM.

In the case of `Nc1n[nH]c2ccc(-c3ccc(S(=O)(=O)NC4CCS(=O)(=O)CC4)cc3Cl)nc12` [Example 50, 4-(3-amino-1H-pyrazolo[4,3-b]pyridin-5-yl)-3-chloro-N-(1,1-dioxidotetrahydro-2H-thiopyran-4-yl)benzenesulfonamide], the concentration giving a half-maximal response (EC50) in experiment [1] (setting [5]) was more than 10 µM; in experiment [2] it was 2.33 µM; in experiment [3] it was 6.3 µM; in experiment [4] it was 6.37 µM.

For the compound `Nc1n[nH]c2ccc(-c3ccc(NS(=O)(=O)Cc4ccccc4)cc3Cl)nc12` [Example 59, N-(4-(3-amino-1H-pyrazolo[4,3-b]pyridin-5-yl)-3-chlorophenyl)-1-phenylmethanesulfonamide], the EC50 in experiment [1] (setting [5]) is 4.32 µM; in experiment [2] it was more than 10 µM; in experiment [3] it was 4.61 µM; in experiment [4], 5.71 µM.

Consider `COc1ccc(S(=O)(=O)Nc2ccc(-c3ccc4[nH]nc(N)c4n3)c(Cl)c2)cc1OC` [Example 79, N-(4-(3-amino-1H-pyrazolo[4,3-b]pyridin-5-yl)-3-chlorophenyl)-3,4-dimethoxybenzenesulfonamide], for which, in experiment [1] (setting [5]), the EC50 was 0.061 µM.

Consider `Cc1cc(S(=O)(=O)N[C@H]2CC[C@](C)(O)CC2)ccc1-c1ccc2[nH]nc(N)c2n1` [Example 80, 4-(3-amino-1H-pyrazolo[4,3-b]pyridin-5-yl)-N-((1r,4r)-4-hydroxy-4-methylcyclohexyl)-3-methylbenzenesulfonamide], for which the EC50 in experiment [1] (setting [5]) came to 0.225 µM.

In the case of `Nc1n[nH]c2ccc(-c3ccc(S(=O)(=O)Nc4cccc(F)c4F)cc3Cl)nc12` [Example 81, 4-(3-amino-1H-pyrazolo[4,3-b]pyridin-5-yl)-3-chloro-N-(2,3-difluorophenyl)benzenesulfonamide], the EC50 in experiment [1] (setting [5]) stood at 0.203 µM.

On to `Cc1cc(S(=O)(=O)N2CCC(CCO)C2)ccc1-c1ccc2[nH]nc(N)c2n1` (centres unmarked) [Example 83, 2-(1-((4-(3-amino-1H-pyrazolo[4,3-b]pyridin-5-yl)-3-methylphenyl)sulfonyl)pyrrolidin-3-yl)ethanol], for which the half-maximal effective concentration (EC50) in experiment [1] (setting [5]) worked out at 5.33 µM.

Consider `Cc1cccc(S(=O)(=O)Nc2ccc(-c3ccc4[nH]nc(N)c4n3)c(Cl)c2)c1` [Example 84, N-(4-(3-amino-1H-pyrazolo[4,3-b]pyridin-5-yl)-3-chlorophenyl)-3-methylbenzenesulfonamide], for which the EC50 in experiment [1] (setting [5]) amounted to 0.045 µM.

Regarding `Nc1n[nH]c2ccc(-c3ccc(S(=O)(=O)N[C@H]4C[C@@H](CO)C4)cc3Cl)nc12` [Example 85, 4-(3-amino-1H-pyrazolo[4,3-b]pyridin-5-yl)-3-chloro-N-((1s,3s)-3-(hydroxymethyl)cyclobutyl)benzenesulfonamide], the EC50 in experiment [1] (setting [5]) is 1.75 µM.

For the compound `Nc1n[nH]c2ccc(-c3ccc(S(=O)(=O)N4CC(Oc5ccccc5)C4)cc3Cl)nc12` [Example 87, 5-(2-chloro-4-((3-phenoxyazetidin-1-yl)sulfonyl)phenyl)-1H-pyrazolo[4,3-b]pyridin-3-amine], in experiment [1] (setting [5]), the EC50 turned out to be 0.83 µM.

Consider `Nc1n[nH]c2ccc(-c3ccc(NS(=O)(=O)c4ccc(OC(F)(F)F)cc4)cc3Cl)nc12` [Example 88, N-(4-(3-amino-1H-pyrazolo[4,3-b]pyridin-5-yl)-3-chlorophenyl)-4-(trifluoromethoxy)benzenesulfonamide], for which the 50% effective concentration (EC50) in experiment [1] (setting [5]) was determined as 2.43 µM.

Turning to `Nc1n[nH]c2ccc(-c3ccc(S(=O)(=O)Nc4cccc(Cl)c4)cc3Cl)nc12` [Example 90, 4-(3-amino-1H-pyrazolo[4,3-b]pyridin-5-yl)-3-chloro-N-(3-chlorophenyl)benzenesulfonamide], in experiment [1] (setting [5]), the concentration giving a half-maximal response (EC50) came to 2.54 µM.

Consider `Cc1cc(S(=O)(=O)NC2CCCCC2O)ccc1-c1ccc2[nH]nc(N)c2n1` (centres unmarked) [Example 91, 4-(3-amino-1H-pyrazolo[4,3-b]pyridin-5-yl)-N-(2-hydroxycyclohexyl)-3-methylbenzenesulfonamide], for which, in experiment [1] (setting [5]), the concentration giving a half-maximal response (EC50) worked out at 1.81 µM.

Turning to `Nc1n[nH]c2ccc(-c3ccc(S(=O)(=O)N[C@H]4CCC[C@@H]4O)cc3Cl)nc12` [Example 94, 4-(3-amino-1H-pyrazolo[4,3-b]pyridin-5-yl)-3-chloro-N-((1S,2S)-2-hydroxycyclopentyl)benzenesulfonamide], in experiment [1] (setting [5]), the concentration giving a half-maximal response (EC50) was 0.026 µM.

As for `CC1(C)CN(C(=O)c2ccc(-c3cccc4nc(NC(=O)C5CC5)nn34)cc2)C1` [reference compound], in experiment [1] (setting [6]), the EC50 is 1.42 µM.

Consider `C[C@@H](O)c1nc2cnc3[nH]ccc3c2n1[C@H]1CC[C@H](C#N)CC1` [reference compound], for which, in experiment [1] (setting [6]), the concentration giving a half-maximal response (EC50) was 2.69 µM.

For the compound `C[C@@H](O)c1nc2cnc3[nH]ccc3c2n1[C@@H]1CCCOC1` [reference compound], the concentration giving a half-maximal response (EC50) in experiment [1] (setting [6]) was determined as 1.34 µM.

As to `C1=C/COCc2cc(ccc2OCCN2CCCC2)Nc2nccc(n2)-c2cccc(c2)COC/1` [reference compound], in experiment [1] (setting [6]), the concentration for a half-maximal effect (EC50) was 1.06 µM.
